Reference: patent US20260272934A1 (The United States of America, as represented by the …, priority 2023, published 2026)

Experiments:
GABAA = experiment: Off-target primary and secondary screen; format: binding; details: for Primary screen AVE (% inhib) ± SD: 10 mM sample
[1] = test system: multiple myeloma-derived L363 cells; experiment: Colorimetric MTS cell viability assay; format: cell-based
Excerpt: • *Data from Park, J. E., et al {Park, 2023 #3387}. **Data from Alverez C. N., et al {Alverez, 2020 #3186}. N. S., Not significant; N. D., Not determined. ^a IC50 values determined from at least three independent experiments except as noted in parentheses. b A colorimetric MTS cell viability assay carried out using multiple myeloma-derived L363 cells.

Alpha1A = Alpha1A (Homo sapiens, UniProt P35348); experiment: Off-target primary and secondary screen; format: binding; details: 10 mM sample
Alpha1A, sequence (P35348 whole entry): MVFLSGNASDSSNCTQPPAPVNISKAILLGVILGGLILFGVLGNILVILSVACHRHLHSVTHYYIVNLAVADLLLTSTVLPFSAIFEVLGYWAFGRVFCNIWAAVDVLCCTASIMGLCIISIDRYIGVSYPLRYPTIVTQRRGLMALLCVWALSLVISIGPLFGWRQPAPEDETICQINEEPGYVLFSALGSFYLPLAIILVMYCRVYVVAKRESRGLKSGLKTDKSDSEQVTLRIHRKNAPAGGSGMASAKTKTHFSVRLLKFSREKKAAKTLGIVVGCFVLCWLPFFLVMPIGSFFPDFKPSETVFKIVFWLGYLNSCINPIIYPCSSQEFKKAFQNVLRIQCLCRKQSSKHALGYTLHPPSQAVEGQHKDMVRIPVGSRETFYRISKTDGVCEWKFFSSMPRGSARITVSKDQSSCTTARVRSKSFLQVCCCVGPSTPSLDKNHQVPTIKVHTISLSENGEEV

Beta1 = Beta1 (Homo sapiens, UniProt P08588); experiment: Off-target primary and secondary screen; format: binding; details: 10 mM sample
Beta1, sequence (P08588 whole entry): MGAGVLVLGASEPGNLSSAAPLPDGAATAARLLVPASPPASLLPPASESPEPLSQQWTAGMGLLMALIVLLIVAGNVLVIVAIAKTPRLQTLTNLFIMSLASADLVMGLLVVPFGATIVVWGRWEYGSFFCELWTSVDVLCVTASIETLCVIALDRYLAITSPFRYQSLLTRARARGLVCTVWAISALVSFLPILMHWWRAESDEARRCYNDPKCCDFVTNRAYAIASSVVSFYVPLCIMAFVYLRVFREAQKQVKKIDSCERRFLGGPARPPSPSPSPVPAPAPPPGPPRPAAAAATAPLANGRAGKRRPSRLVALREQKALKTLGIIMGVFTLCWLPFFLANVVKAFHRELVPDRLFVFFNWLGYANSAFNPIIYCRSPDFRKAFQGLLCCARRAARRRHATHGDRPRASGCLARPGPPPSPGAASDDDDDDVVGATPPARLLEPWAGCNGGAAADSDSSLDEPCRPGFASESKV

[2] = Conversion of Allopole to Allopole-A under various buffer conditions (mass spectroscopy); format: physicochemical; details: RT, 1 h; for Compound detected / Compound detected, % of total / Compound detected, pk area: 100 uM Allopole incubated
Description: This Example illustrates the conversion of Allopole to Allopole-A under various buffer conditions, RT, 1 h (JE), as set forth in Table 4
Samples were prepared by incubating Allopole in the indicated buffer conditions without or with 5 mM GSH for 1 h, at RT.

Alpha2C = Alpha2C (Homo sapiens, UniProt P18825); experiment: Off-target primary and secondary screen; format: binding; details: 10 mM sample
Alpha2C, sequence (P18825 whole entry): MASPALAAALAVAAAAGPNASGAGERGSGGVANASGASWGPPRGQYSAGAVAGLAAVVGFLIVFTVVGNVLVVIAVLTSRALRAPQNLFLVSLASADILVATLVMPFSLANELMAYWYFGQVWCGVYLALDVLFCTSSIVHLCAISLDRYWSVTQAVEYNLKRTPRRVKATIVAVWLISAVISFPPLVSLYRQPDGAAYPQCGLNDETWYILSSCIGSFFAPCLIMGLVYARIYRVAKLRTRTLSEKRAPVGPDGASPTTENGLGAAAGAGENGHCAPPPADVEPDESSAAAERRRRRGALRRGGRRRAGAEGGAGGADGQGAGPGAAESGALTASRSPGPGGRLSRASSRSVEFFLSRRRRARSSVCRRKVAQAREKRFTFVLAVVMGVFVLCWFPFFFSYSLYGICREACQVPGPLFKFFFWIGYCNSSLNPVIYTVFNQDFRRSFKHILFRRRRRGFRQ

5-HT1D = 5-HT1D (Homo sapiens, UniProt P28221); experiment: Off-target primary and secondary screen; format: binding; details: 10 mM sample
5-HT1D, sequence (P28221 whole entry, species assumed): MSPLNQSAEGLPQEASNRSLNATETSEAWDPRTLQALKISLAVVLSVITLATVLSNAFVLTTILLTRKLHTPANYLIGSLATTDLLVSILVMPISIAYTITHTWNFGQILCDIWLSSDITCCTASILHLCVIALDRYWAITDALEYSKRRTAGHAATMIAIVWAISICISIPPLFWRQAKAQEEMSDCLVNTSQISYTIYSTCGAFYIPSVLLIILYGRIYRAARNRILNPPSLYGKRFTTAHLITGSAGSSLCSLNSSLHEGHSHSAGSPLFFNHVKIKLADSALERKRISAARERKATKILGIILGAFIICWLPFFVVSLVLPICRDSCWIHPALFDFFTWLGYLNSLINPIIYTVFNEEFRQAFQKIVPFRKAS

PBD1 = PBD1 (Homo sapiens, UniProt P53350); experiment: FP-based inhibition assay; format: binding; details: read-out: PBD1 IC50 ± SD
PBD1, sequence (P53350 371-594 limits assumed): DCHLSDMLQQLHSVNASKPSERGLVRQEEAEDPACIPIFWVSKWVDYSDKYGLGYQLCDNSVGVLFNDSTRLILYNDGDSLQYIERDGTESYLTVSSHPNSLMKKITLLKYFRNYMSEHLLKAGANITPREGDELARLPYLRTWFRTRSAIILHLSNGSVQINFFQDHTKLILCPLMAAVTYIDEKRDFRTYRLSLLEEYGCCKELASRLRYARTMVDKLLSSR
Description: In the following, PBD1-3 fluorescence polarization (FP) binding assays were carried out for determining the Plk1 specificity. […] All samples were analyzed approximately 30 min after reaction in a 384-well format using the SpectraMax Paradigm multi-mode microplate detection platform (Molecular Devices). Data were analyzed after carrying out at least three independent experiments using GraphPad Prism software version 7.

BZP Rat brain site = experiment: Off-target primary and secondary screen; format: binding; details: for Primary screen AVE (% inhib) ± SD: 10 mM sample
Plk2 PBD = experiment: FP-based inhibition assay; format: binding; details: N.S. = Not significant
Description: (§1) In the following, PBD1-3 fluorescence polarization (FP) binding assays were carried out for determining the Plk1 specificity. FP assays were carried out essentially as described previously {Liu, 2011 #2790; Qian, 2014 #1416}. All samples were analyzed approximately 30 min after reaction in a 384-well format using the SpectraMax Paradigm multi-mode microplate detection platform (Molecular Devices). Data were analyzed after carrying out at least three independent experiments using GraphPad Prism software version 7.

Plk3 PBD = experiment: FP-based inhibition assay; format: binding; details: N.S. = Not significant
Description: as §1

H1 = H1 (Homo sapiens, UniProt P35367); experiment: Off-target primary and secondary screen; format: binding; details: 10 mM sample
H1, sequence (P35367 whole entry): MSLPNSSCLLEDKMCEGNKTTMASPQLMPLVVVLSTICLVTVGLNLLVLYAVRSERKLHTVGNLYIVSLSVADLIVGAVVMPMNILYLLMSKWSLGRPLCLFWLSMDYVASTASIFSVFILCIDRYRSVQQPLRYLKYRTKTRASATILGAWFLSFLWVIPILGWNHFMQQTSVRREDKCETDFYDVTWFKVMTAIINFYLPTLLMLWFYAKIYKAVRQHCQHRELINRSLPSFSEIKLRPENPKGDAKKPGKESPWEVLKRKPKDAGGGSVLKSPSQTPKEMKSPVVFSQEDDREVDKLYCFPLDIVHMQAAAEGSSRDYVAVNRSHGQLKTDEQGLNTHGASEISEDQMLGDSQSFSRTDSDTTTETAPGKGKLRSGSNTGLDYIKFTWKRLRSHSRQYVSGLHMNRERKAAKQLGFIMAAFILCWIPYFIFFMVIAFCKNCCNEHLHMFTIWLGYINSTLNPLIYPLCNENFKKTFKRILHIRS

D5 = D5 (Homo sapiens, UniProt P21918); experiment: Off-target primary and secondary screen; format: binding; details: 10 mM sample
D5, sequence (P21918 whole entry): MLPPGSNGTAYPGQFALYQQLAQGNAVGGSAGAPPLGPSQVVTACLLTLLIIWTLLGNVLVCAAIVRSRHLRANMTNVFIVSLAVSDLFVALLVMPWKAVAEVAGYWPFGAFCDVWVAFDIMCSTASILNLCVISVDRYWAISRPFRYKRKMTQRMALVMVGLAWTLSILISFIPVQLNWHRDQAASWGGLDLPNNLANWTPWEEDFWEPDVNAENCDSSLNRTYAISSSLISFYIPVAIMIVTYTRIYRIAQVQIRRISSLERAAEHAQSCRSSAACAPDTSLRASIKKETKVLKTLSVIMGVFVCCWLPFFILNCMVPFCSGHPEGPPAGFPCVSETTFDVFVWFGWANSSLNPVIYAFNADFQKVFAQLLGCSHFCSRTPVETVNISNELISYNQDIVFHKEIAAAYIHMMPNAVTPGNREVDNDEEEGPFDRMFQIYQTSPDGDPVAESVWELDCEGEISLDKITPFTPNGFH

5-HT1E = 5-HT1E (Homo sapiens, UniProt P28566); experiment: Off-target primary and secondary screen; format: binding; details: 10 mM sample
5-HT1E, sequence (P28566 whole entry, species assumed): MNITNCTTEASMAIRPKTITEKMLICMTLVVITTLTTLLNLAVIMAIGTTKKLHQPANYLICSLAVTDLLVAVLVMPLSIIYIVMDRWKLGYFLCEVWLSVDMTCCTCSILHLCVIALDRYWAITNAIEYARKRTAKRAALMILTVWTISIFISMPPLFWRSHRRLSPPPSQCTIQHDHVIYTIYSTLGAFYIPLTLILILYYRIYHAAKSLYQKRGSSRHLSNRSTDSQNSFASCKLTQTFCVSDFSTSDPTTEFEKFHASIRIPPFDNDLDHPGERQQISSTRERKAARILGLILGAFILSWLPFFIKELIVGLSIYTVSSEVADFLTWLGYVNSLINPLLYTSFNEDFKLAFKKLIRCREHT

PBR = PBR (Homo sapiens, UniProt P30536); experiment: Off-target primary and secondary screen; format: binding; details: for Primary screen AVE (% inhib) ± SD: 10 mM sample
PBR, sequence (P30536 whole entry, species assumed): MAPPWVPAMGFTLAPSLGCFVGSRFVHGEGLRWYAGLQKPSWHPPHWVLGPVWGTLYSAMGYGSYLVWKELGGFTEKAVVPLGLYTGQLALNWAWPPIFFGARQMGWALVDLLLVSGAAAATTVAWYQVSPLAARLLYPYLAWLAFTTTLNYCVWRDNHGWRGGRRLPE

DOR = DOR (Homo sapiens, UniProt P41143); experiment: Off-target primary and secondary screen; format: binding; details: 10 mM sample
DOR, sequence (P41143 whole entry): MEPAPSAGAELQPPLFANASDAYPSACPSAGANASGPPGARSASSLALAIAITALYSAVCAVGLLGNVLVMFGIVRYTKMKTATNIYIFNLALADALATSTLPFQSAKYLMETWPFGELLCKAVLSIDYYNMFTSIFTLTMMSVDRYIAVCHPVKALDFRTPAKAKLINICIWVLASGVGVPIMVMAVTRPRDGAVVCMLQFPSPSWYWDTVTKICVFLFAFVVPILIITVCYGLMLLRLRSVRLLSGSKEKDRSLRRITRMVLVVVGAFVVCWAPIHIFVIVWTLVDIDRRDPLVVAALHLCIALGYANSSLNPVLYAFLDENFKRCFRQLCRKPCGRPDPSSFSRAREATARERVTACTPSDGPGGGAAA

Hela cells = experiment: Immunoprecipitation, confocal imaging and time-lapse analyses in Hela cells; format: cell-based
Excerpt: FIG. 5 illustrates the inhibition by Allopole of PBD1-dependent interactions and subcellular localizations leading to mitotic block in Hela cells. FIG. 5a depicts the immunoprecipitation and immunoblotting analyses.

[3] = target: T1, PBD1 WT or mutants (F559) (Homo sapiens, UniProt P53350, F559D); experiment: FP-based inhibition and U2OS imaging with PBD1/Plk1 WT or F559 mutants; format: binding; details: in vitro and in vivo; U2OS cells 8 μM
T1 construct: the indicated PBD1 WT or mutants in the presence of various concentrations of Allopole
T1 sequence (P53350 whole entry F559D): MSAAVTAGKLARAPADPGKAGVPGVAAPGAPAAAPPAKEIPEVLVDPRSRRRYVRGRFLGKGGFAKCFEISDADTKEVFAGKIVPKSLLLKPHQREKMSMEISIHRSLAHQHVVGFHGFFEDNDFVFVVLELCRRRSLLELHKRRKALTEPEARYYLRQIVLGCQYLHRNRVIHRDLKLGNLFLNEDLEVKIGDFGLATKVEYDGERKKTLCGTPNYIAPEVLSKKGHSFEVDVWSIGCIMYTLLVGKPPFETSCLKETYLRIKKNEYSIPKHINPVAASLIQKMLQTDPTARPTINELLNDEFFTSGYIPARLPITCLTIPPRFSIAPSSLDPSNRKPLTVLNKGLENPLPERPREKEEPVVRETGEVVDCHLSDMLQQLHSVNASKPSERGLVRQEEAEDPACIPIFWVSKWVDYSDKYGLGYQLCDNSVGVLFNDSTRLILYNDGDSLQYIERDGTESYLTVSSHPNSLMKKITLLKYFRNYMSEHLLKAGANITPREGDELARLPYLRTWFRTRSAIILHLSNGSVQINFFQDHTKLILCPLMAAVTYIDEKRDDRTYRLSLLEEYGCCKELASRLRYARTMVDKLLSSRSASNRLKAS
Description: Bars, mean #s.d. FIG. 7(b) depicts the results of FP-based inhibition assays for the interaction between FITC-Ahx-DPPLHS-pT-AI-NH2 and the indicated PBD1 WT or mutants in the presence of various concentrations of Allopole. Bars, mean±s.d. FIG. 7(c) depicts confocal imaging and quantification of Plk1 endogenous promoter (Pendo)-fused mGFP-Plk1 signals in U2OS cells silenced for endogenous Plk1 (siPlk1) and treated with 8 μM of Allopole for the indicated length of time (Experimental procedure at bottom, right). Arrowheads, centrosomes. Quantification of Pendo-mGFP-Plk1 signals was performed with the images acquired from three independent experiments [n=a total of 93, 53, and 79 cells for Plk1 WT samples (in order) and n=a total of 92, 64, and 76 cells for the F559D mutant samples (in order)]. Bars, mean±s.d. Arrowheads, centrosomes. ****, P<0.0001 (unpaired two-tailed t-test).

[4] = buffer 2 (1x PBS pH = 7.4), no GSH
[5] = buffer 3 (20 mM HEPES pH = 7.0), no GSH

O=c1c2sc(Cl)cc2n2c(=S)[nH]nc2n1CC1CC1 [Compound 19, 7-Chloro-4-(cyclopropylmethyl)-1-thioxo-2,4-dihydrothieno[2,3-e][1,2,4]triazolo[4,3-a]pyrimidin-5 (1H)-one]
Ki (GABAA): > 10 µM
Primary screen AVE (% inhib) ± SD (GABAA): 35.7 ± 11.1 % inhib
Cell efficacy (GI50) Mean ± SD ([1]; N.S. = Not significant): N.S.
Primary screen AVE (% inhib) ± SD (Alpha1A): -9.4 ± 18.0 % inhib
Primary screen AVE (% inhib) ± SD (Beta1): -6.2 ± 19.4 % inhib
Compound detected ([2]; buffer 1 + 5 mM GSH): 95.4 µmol/L
Compound detected, % of total ([2]; buffer 1 + 5 mM GSH): 95.4 % of total
Compound detected, pk area ([2]; buffer 1 + 5 mM GSH): 1.38E+09
Compound detected [2, 4]: 0.8 µmol/L
Compound detected, % of total [2, 4]: 0.8 % of total
Compound detected, pk area [2, 4]: 4.90E+06
Compound detected ([2]; buffer 2 + 5 mM GSH): 77.9 µmol/L
Compound detected, % of total ([2]; buffer 2 + 5 mM GSH): 77.9 % of total
Compound detected, pk area ([2]; buffer 2 + 5 mM GSH): 5.81E+08
Compound detected [2, 5]: 1.9 µmol/L
Compound detected, % of total [2, 5]: 1.9 % of total
Compound detected, pk area [2, 5]: 1.56E+06
Compound detected ([2]; buffer 3 + 5 mM GSN): 66.9 µmol/L
Compound detected, % of total ([2]; buffer 3 + 5 mM GSN): 66.9 % of total
Compound detected, pk area ([2]; buffer 3 + 5 mM GSN): 1.89E+08
Compound detected ([2]; buffer 3 [sic], no GSH): 1.3 µmol/L
Compound detected, % of total ([2]; buffer 3 [sic], no GSH): 1.3 % of total
Compound detected, pk area ([2]; buffer 3 [sic], no GSH): 9.61E+08
Primary screen AVE (% inhib) ± SD (Alpha2C): 10.6 ± 4.2 % inhib
Primary screen AVE (% inhib) ± SD (5-HT1D): 22.5 ± 25.6 % inhib
IC50 (PBD1): 0.00253 ± 0.00018 µM
Ki (BZP Rat brain site): > 10 µM
Primary screen AVE (% inhib) ± SD (BZP Rat brain site): 2.3 ± 21.8 % inhib
Plk2 PBD IC50 ± SD (Plk2 PBD): N.S.
Plk3 PBD IC50 ± SD (Plk3 PBD): N.S.
Primary screen AVE (% inhib) ± SD (H1): 11.5 ± 2.8 % inhib
Primary screen AVE (% inhib) ± SD (D5): 28.7 ± 10.7 % inhib
Primary screen AVE (% inhib) ± SD (5-HT1E): 31.3 ± 7.6 % inhib
Ki (PBR): > 10 µM
Primary screen AVE (% inhib) ± SD (PBR): 5.3 ± 8.3 % inhib
Primary screen AVE (% inhib) ± SD (DOR): -13.5 ± 6.8 % inhib

Cn1cnc([N+](=O)[O-])c1Sc1nnc2n(CC3CC3)c(=O)c3sc(Cl)cc3n12 [Compound 20, 7-Chloro-4-(cyclopropylmethyl)-1-((1-methyl-4-nitro-1H-imidazol-5-yl)thio) thieno[2,3-e][1,2,4]triazolo[4,3-a]pyrimidin-5 (4H)-one]
Ki (GABAA): > 10 µM
Primary screen AVE (% inhib) ± SD (GABAA): 33.3 ± 4.2 % inhib
GI50 ([1]; Homo sapiens, L-363, N.S. = Not significant, read-out: Cell efficacy (GI50) Mean ± SD): 4.09 ± 0.14 µM
Primary screen AVE (% inhib) ± SD (Alpha1A): 40.6 ± 10.5 % inhib
effect of inhibition of PBD1-dependent interactions and subcellular localizations (Hela cells): mitotic block
Primary screen AVE (% inhib) ± SD (Beta1): 67.3 ± 49.1 % inhib
Compound detected ([2]; buffer 1 + 5 mM GSH): 0.1 µmol/L
Compound detected, % of total ([2]; buffer 1 + 5 mM GSH): 0.1 % of total
Compound detected, pk area ([2]; buffer 1 + 5 mM GSH): 8.76E+08
Compound detected [2, 4]: 97.6 µmol/L
Compound detected, % of total [2, 4]: 97.6 % of total
Compound detected, pk area [2, 4]: 6.28E+08
Compound detected ([2]; buffer 2 + 5 mM GSH): 0.0 µmol/L
Compound detected, % of total ([2]; buffer 2 + 5 mM GSH): 0.0 % of total
Compound detected, pk area ([2]; buffer 2 + 5 mM GSH): 2.41E+03
Compound detected [2, 5]: 93.1 µmol/L
Compound detected, % of total [2, 5]: 93.1 % of total
Compound detected ([2]; buffer 3 + 5 mM GSN): 0.0 µmol/L
Compound detected, % of total ([2]; buffer 3 + 5 mM GSN): 0.0 % of total
Compound detected, pk area ([2]; buffer 3 + 5 mM GSN): 93500
Compound detected ([2]; buffer 3 [sic], no GSH): 97.9 µmol/L
Compound detected, % of total ([2]; buffer 3 [sic], no GSH): 97.9 % of total
Compound detected, pk area ([2]; buffer 3 [sic], no GSH): 7.45E+08
stability in buffer ([2]; in the absence of GSH): remains stable
conversion of the prodrug to the active Allopole-A form ([2]; with 5 mM GSH): rapid conversion
sensitivity of Plk1 with F559 mutated to a charged residue to treatment [3]: insensitive
Primary screen AVE (% inhib) ± SD (Alpha2C): 6.4 ± 7.5 % inhib
Primary screen AVE (% inhib) ± SD (5-HT1D): 32.8 ± 27.1 % inhib
Ki (BZP Rat brain site): > 10 µM
Primary screen AVE (% inhib) ± SD (BZP Rat brain site): 9.5 ± 7.6 % inhib
Primary screen AVE (% inhib) ± SD (H1): 35.8 ± 11.9 % inhib
Primary screen AVE (% inhib) ± SD (D5): 20.9 ± 9.5 % inhib
Primary screen AVE (% inhib) ± SD (5-HT1E): 22.2 ± 10.5 % inhib
Ki (PBR): > 10 µM
Primary screen AVE (% inhib) ± SD (PBR): -2.1 ± 5.3 % inhib
Primary screen AVE (% inhib) ± SD (DOR): -1.0 ± 4.8 % inhib
